Read-outs that look alike come from different tables or passages of the source.
How the values were obtained:
human keratinocytes [1] = assay: DNA synthesis in keratinocytes (3H-thymidine incorporation, keratinocyte proliferation); format: cell-based; conditions: Homo sapiens, Keratinocyte; for activity at 0.1 µM / activity at 1 µM / activity at 10 µM / activity at 100 µM / activity at 1000 µM / activity at 10000 µM: read-out: Rate of DNA synthesis; for minimal effective concentration: read-out: concentration at which inhibitory to DNA synthesis
From the text: The incorporation of ^3 H-thymidine by cultured keratinocytes was used as an assay of keratinocyte proliferation. Thymidine is one of four deoxynucleosides which are the monomeric units of DNA, the universal library of genetic information in the animal kingdom. Prior to cell division of a somatic cell such as a keratinocyte, the complete genome of the cell undergoing cell division is replicated. This involves large scale DNA synthesis by the cell and enables both daughter cells to receive identical copies of the genetic material. When ^3 H-thymidine is included in the culture media of keratinocytes which are synthesizing DNA in preparation for cell division then the labelled nucleoside is incorporated into the newly synthesized DNA. The extent of incorporation of ^3 H-thymidine into a population of cells is proportional to the rate of DNA synthesis by this population of cells and therefore an indication of their cellular proliferation.
1. Normal human keratinocytes isolated from neonatal foreskins by trypsin treatment were grown in DME medium/5% fetal calf serum in the presence of mitomycin C treated 3T3 mouse fibroblasts for establishing dividing keratinocyte colonies. Keratinocytes were grown under the above condition until their third passage.
2. For the experiments, third passage keratinocytes were plated into a serum-free keratinocyte growth medium (KGM; obtained from Clonetics, San Diego, Calif.) containing 0.09 mM calcium. 20,000 to 30,000 cells were plated into each well of 24 well cell culture plates and grown for 5 days, until the cells reach about 80% confluence.
3. Medium was changed to fresh medium and the various test materials were added to the medium from an ethanolic stock solution. The final ethanol concentration in the cultures was kept below 0.2%. Control cultures received no tested material but were dosed with 0.2% ethanol. Each compound or combination was tested in three separate wells. In four hours, 1 uCi of ^3 H-thymidine (Amersham Corp., Sp activity 40 Ci/mmol) was added to the 1 ml medium in each well. The cells were incubated overnight and 24 hours later the amount of ^3 H-thymidine associated with the cellular DNA of keratinocytes was assessed as described below.
4. The medium was aspirated, and the wells washed with 1 ml phosphate-buffered saline. The DNA and proteins of the cells in the plate were then precipitated by adding 1 ml of ice-cold 10% trichloroacetic acid (TCA). The plates were left on ice for 30 minutes to complete the precipitation process. TCA was then aspirated and each well was then washed four times with 5% TCA. The plates were then dried on a filter pad and the cells in the wells were dissolved in 0.5 ml of 0.1N sodium hydroxide. The sodium hydroxide was then neutralized using 0.1N hydrochloric acid and the solution (1 ml total volume) was then transferred to a scintillation vial. 50 μl samples from each vial were used for protein assay using BCA protein assay reagent obtained from Pierce Chemical Company. 8 ml of a scintillation fluid (Ecolume) was added to the rest of the solution in the vial, and the vials were counted in a scintillation counter to determine the amount of radioactivity in each vial. The DNA synthesis rate was then calculated as cpm ^3 H thymidine incorporated into total cellular DNA/microgram of cell protein for each individual well.

human keratinocytes [2] = assay: Cornified envelope (CE) formation, marker of terminal differentiation of keratinocytes; format: cell-based; conditions: Homo sapiens, Keratinocyte, read-out: CE Levels
Experimental: (§1) Human keratinocytes, isolated from neonatal foreskin by trypsin treatment were grown in Dulbecco Modification Eagle (DME) Hams F12 (3:1) medium/5% fetal calf serum in the presence of mitomycin C treated 3T3 mouse fibroblasts for establishing dividing keratinocyte colonies. Cells were grown under the above condition until their second passage and kept frozen for future use. Frozen second passage keratinocytes were thawed and plated into the above medium and grown for five days. On day 5, when the cells were 70-80% confluent, they were trypsinized and plated in the serum-free medium for the various experiments.
(§2) During the process of terminal differentiation in the epidermis, a 15 nm thick layer of protein, known as the cornified envelope (CE)is formed on the inner surface of the cell periphery. The CE is composed of numerous distinct proteins which have been cross-linked together by the formation of N ^ε -(-γ-glutamyl) lysine isodipeptide bonds catalyzed by the action of at least two different transglutaminases expressed in the epidermis. Transglutaminase (TG-1) is expressed in abundance in the differentiated layers of the epidermis, especially the granular layer, but is absent in the undifferentiated basal epidermis. Thus, TG-1 is a useful marker of epidermal keratinocyte differentiation with high TG-1 levels indicating a more differentiated state. An ELISA based TG-1 assay, using a TG-1 antibody, was used to assess the state of differentiation of the cultured keratinocytes in the examples that follow.
Proper skin conditioning require enhanced proliferation and differentiation of epidermal keratinocytes. The different citrate esters were tested on their effect on cornified envelope (CE) formation, a marker of terminal differentiation of keratinocytes. Citrate esters were tested at 1 mM levels in medium containing 0.15 mM Ca. Levels are expressed as % of control ±SD. The CE formation for the control was 54.48 ±31.8 cpm/μg cell protein.

Transglutaminase (TG-1) = assay: Transglutaminase I levels in keratinocytes (ELISA based TG-1 assay); format: cell-based, human; conditions: 48 hour treatment
Experimental: as §1, §2
The level of TG-1 was measured as follows. […] The DNA content of the cells in the wells were first determined before the TG-1 assay.
TG-1 levels of the cells in the wells were determined using the TG-1 specific monoclonal antibody (BC1) (first antibody) (obtained from Amersham Life Sciences) and using a peroxidase labelled rabbit antimouse IgG fragment (second antibody). The plates were blocked by 5% nonfat milk in TBS (Tris buffered saline, pH 8.0) for one hour followed by overnight incubation with the first antibody (1:2,000 fold dilution) in 1% milk/TBS at 4° C. After rinsing the plates three times with 1% milk/TBS containing 0.05% Tween 20, the plates were incubated with 1:4000 dilution of the second antibody at room temperature for two hours. The plates were rinsed three times with 1% milk/TBS/Tween and three times with TBS. Color was developed by incubation with o-phenylene diamine and hydrogen peroxide. The optical density was read at 410 nm in a microtiter plate reader and the TG-1 levels were calculated as OD/DNA fluorescence. The mean ±Standard Deviation of at least six separate wells were used for calculation and statistical analysis of the data. Results are expressed as % of control.
Cornified envelope formation is determined by the activity of transglutaminase enzyme which cross-links all the envelope precursor proteins to form the envelope. This enzyme is calcium dependent and is inhibited by calcium chelators such as citric acid and citric acid esters.

[3] = 100 μM, 24 hours exposure, ±SD, * statistically significant compared to controls
[4] = 1000 μM, 24 hours exposure, ±SD, * statistically significant compared to controls
[5] = 10,000 μM, 24 hours exposure, ±SD, * statistically significant compared to controls
[6] = 1 mM, medium containing 0.15 mM Ca, ±SD, * statistically significant effects
[7] = 10 μM, * statistically significant
[8] = 100 μM, * statistically significant

Row | Structure (SMILES) | activity at 0.1 µM (human keratinocytes [1]; 0.1 μM, 24 hours exposure, ±SD) | activity at 1 µM (human keratinocytes [1]; 1.0 μM, 24 hours exposure, ±SD) | activity at 10 µM (human keratinocytes [1]; 10 μM, 24 hours exposure, ±SD) | activity at 100 µM (human keratinocytes [1]; [3]) | activity at 1000 µM (human keratinocytes [1]; [4]) | activity at 10000 µM (human keratinocytes [1]; [5]) | minimal effective concentration (human keratinocytes [1]; 24 hours exposure) | activity at 1000 µM (human keratinocytes [2]; [6]) | transglutaminase I levels (Transglutaminase (TG-1); 1 μM) | transglutaminase I levels (Transglutaminase (TG-1); [7]) | transglutaminase I levels (Transglutaminase (TG-1); [8]) | activity at 0.1 µM (human keratinocytes [1]; 24 h) | activity at 1 µM (human keratinocytes [1]; 24 h) | activity at 10 µM (human keratinocytes [1]; 24 h) | activity at 100 µM (human keratinocytes [1]; 24 h) | activity at 1000 µM (human keratinocytes [1]; 24 h) | activity at 10000 µM (human keratinocytes [1]; 24 h) | activity at 1000 µM (human keratinocytes [2])
1 | CCOC(=O)CC(O)(CC(=O)OCC)C(=O)OCC [TEC, triethylcitrate] | 112 ± 21.5% | 112 ± 13.1% | 79.1 ± 13.9% | 9.8 ± 2.3% | 11.2 ± 9.2% | 1.2 ± 0.02% | > 10 µM | 18.6 ± 4.2% | 77.3 ± 10.7 % of control | 76.7 ± 20.8 % of control | 67.2 ± 11.9 % of control |  |  |  |  |  |  | 
2 | C[N+](C)(C)CCO [Choline, choline] |  |  |  |  |  |  |  |  | 121.8 ± 18 % of control | 124.2 ± 8.7 % of control | 120.4 ± 11.3 % of control | 125 ± 17.6% | 113 ± 12% | 109 ± 3.3% | 114 ± 12% | 115 ± 24% | 127 ± 10.7% | 135 ± 23.6%
3 | CCCCOC(=O)CC(O)(CC(=O)OCCCC)C(=O)OCCCC [TBC, tributylcitrate] | 106 ± 8.4% | 100 ± 28% | 68.2 ± 13% | 8.7 ± 5.5% | 1.35 ± 0.1% | 0.505% | > 10 µM | 23.6 ± 2.1% | 100 ± 13 % of control | 79 ± 13 % of control | 79 ± 13 % of control |  |  |  |  |  |  | 

Source: patent US5571518A, “Cosmetic compositions containing tricholine citrate” (priority 1995, dated 1996)
